In brackets after ≈: the same amount, converted by molar mass. Read-outs that look alike come from different tables or passages of the source.
Tests used:
[1] = target: T1, human liver microsomal 2,3-oxidosqualene-lanosterol cyclase (OSC) (Homo sapiens, UniProt P48449); experiment: Inhibition of human liver microsomal 2,3-oxidosqualene-lanosterol cyclase (OSC); format: biochemical; settings: human liver microsomes; for IC50: concentration reducing conversion of MOS into lanosterol to 50% of control
T1 construct: Liver microsomes from a healthy volunteer were prepared in sodium phosphate buffer (pH 7.4); from tissue; host or cells: human liver microsomes from a healthy volunteer
T1 sequence (P48449 1-732): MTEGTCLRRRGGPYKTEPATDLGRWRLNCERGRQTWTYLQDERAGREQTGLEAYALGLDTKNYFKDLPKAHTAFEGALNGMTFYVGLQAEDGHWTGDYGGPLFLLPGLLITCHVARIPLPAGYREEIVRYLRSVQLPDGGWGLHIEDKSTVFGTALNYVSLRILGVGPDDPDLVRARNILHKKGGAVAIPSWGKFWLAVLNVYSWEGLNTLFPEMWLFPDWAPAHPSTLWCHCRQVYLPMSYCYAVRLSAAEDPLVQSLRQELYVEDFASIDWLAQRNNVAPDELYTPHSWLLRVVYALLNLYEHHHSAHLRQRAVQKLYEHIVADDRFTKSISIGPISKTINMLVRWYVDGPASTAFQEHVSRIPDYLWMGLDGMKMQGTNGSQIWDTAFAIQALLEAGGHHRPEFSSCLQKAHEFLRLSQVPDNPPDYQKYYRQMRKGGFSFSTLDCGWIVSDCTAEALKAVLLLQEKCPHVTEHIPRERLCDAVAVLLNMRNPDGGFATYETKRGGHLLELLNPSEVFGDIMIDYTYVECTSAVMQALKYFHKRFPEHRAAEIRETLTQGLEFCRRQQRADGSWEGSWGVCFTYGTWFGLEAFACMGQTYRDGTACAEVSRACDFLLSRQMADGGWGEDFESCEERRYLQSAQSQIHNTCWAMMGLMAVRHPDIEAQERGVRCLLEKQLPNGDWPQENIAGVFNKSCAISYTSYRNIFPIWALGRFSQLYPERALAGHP
Description: Inhibition of Human Liver Microsomal 2,3-Oxidosqualene-lanosterol Cyclase (OSC)
Liver microsomes from a healthy volunteer were prepared in sodium phosphate buffer (pH 7.4). The OSC activity was measured in the same buffer which also contained 1 mM EDTA and 1 mM dithiothreitol. The microsomes were diluted to 0.8 mg/ml protein in cold phosphate buffer. Dry [^14C]R,S-monooxidosqualene (MOS; 12.8 mCi/mmol) was diluted to 20 nCi/μl with ethanol and mixed with phosphate buffer-1% BSA (Bovine Serum Albumin). A stock solution of 1 mM test substance in DMSO was diluted to the desired concentration with phosphate buffer-1% BSA. 40 μl of microsomes were mixed with 20 μl of the solution of the test substance and the reaction was subsequently started with 20 μl of the [^14C]R,S-MOS solution. The final conditions were: 0.4 mg/ml of microsomal proteins and […] of [^14C]R,S-MOS in phosphate buffer, pH 7.4, containing 0.5% albumin, DMSO <0.1% and ethanol <2%, in a total volume of 80 μl.
After 1 hour at 37° C. the reaction was stopped by the addition of 0.6 ml of 10% KOH-methanol, 0.7 ml of water and 0.1 ml of hexane:ether (1:1, v/v) which contained 25 μg of non-radioactive MOS and 25 μg of lanosterol as the carrier. After shaking 1 ml of hexane:ether (1:1, v/v) was added to each test tube, these were again shaken and then centrifuged. The upper phase was transferred into a glass test tube, the lower phase was again extracted with hexane:ether and combined with the first extract. The entire extract was evaporated to dryness with nitrogen and the residue was suspended in 50 μl of hexane:ether and applied to a silica gel plate. Chromatographic separation was effected in hexane:ether (1:1, v/v) as the eluent. […] After drying radioactive MOS and lanosterol were observed on the silica gel plate. The ratio of MOS to lanosterol was determined from the radioactive bands in order to determine the OSC inhibition.
The test was carried out on the one hand with a constant test substance concentration of 100 nM and the percentage OSC inhibition against controls was calculated. In addition, the test was carried out with different test substance concentrations and subsequently the IC50 value was calculated, i.e. the concentration required to reduce the conversion of MOS into lanosterol to 50% of the control value.

plasma cholesterol = experiment: Cholesterol lowering in fat-fed hamsters; format: in vivo; settings: fat-fed male golden hamsters, treated 10 days, 200 μmol (about 70-120 mg/kg/ay) in diet, percent of the control animals
Description: Cholesterol Lowering in Fat-fed Hamsters. Male golden hamsters kept individually were pre-treated for 7 days with a diet containing grated coconut (40 cal. % fat). The animals were then divided into groups each comprising 5 animals. During the treatment the animals were maintained on the same diet. Each test substance was firstly homogenized in 9 ml of water and subsequently mixed with the milled diet. The controls received only feed converted into a paste with water. The animals were treated for 10 days with a test substance dosage of 200 μmol (about 70-120 mg/kg/ay). Blood samples (200 μl) were removed via the jugular vein under light anaesthesia on the last day of the pre-treatment and one day after the last administration of test substance. The plasma cholesterol concentration was determined using a calorimetric enzyme method. The plasma lipoproteins were separated by exclusion chromatography ([…] et al., Science Tools, 36, 1992, 10-12). The total cholesterol was determined in each fraction using a fluorometric enzyme method (Gamble et al., J. Lipid Res., 19, 1978, 1068-1071) in order to calculate the amount of cholesterol in the LDL and HDL fractions. The activity on plasma cholesterol and LDL and HDL cholesterol, expressed in percent of the control animals, for the products of Examples 8a and 12 is reproduced in the following Table: […]

Aspergillus fumigatus = experiment: Antifungal activity in vitro, microdilution method; format: cell-based; settings: growth inhibition, incubation at 27° C. for 48 hours, read-out: IC50 (mg/ml) for: A. fumigatus after: 48 hours
Description: (§1) Antifungal Activity In Vitro The compounds were tested for antifungal activity against Candida albicans, Cryptococcus neoformans and Aspergillus fumigatus using a microdilution method on microtitre plates (96 wells per plate). Yeast supplemented with 1% glucose and 0.25% di-potassium phosphate was used for the three fungal strains. The fungal cells were inoculated at 3×10^4 CFU (Colony Forming Unit) in […] of medium per well. The medium contained increasing concentrations of test substance. After incubation at 27° C. for 24 or 48 hours the turbidity in each well was measured by a microtitre plate reader. The growth inhibition was calculated in comparison to a control (without test substance). The IC50 value given in the following Table is the concentration of test substance at which the growth is inhibited by 50%.

Candida albicans = experiment: Antifungal activity in vitro, microdilution method; format: cell-based; settings: growth inhibition
Description: as §1

Cryptococcus neoformans = experiment: Antifungal activity in vitro, microdilution method; format: cell-based; settings: growth inhibition, incubation at 27° C. for 48 hours, read-out: IC50 (mg/ml) for: C. neoformans after: 48 hours
Description: as §1

[2] = constant test substance concentration of 100 nM, 1 hour at 37° C., against controls
[3] = incubation at 27° C. for 24 hrs., read-out: IC50 (mg/ml) for: C. albicans after: 24 hrs.
[4] = incubation at 27° C. for 48 hrs., read-out: IC50 (mg/ml) for: C. albicans after: 48 hrs.

Row | Compound | IC50 [1] [nM] | Inhibition of OSC (%) [1, 2] [%] | HDL cholesterol (plasma cholesterol) [%] | LDL cholesterol (plasma cholesterol) [%] | Total cholesterol (plasma cholesterol) [%] | inhibition at 0.1 µM [1, 2] [%] | IC50 (Aspergillus fumigatus) [mg/mL] | IC50 (Candida albicans; [3]) [mg/mL] | IC50 (Candida albicans; [4]) [mg/mL] | IC50 (Cryptococcus neoformans) [mg/mL]
1 | C=CCN(C)C/C=C/COc1ccc(C(C)(O)c2ccc(Br)cc2)cc1 (racemic) [Example 8a, (E)-(RS)-1-[4-[4-(allyl-methyl-amino)-but-2-enyloxy]-phenyl]-(4-bromo-phenyl)-ethanol] | 18 | 82 | −18 | −51 | −30 | – | – | – | – | –
2 | CN(C/C=C/COc1ccc(C(=O)c2ccc(Br)cc2)cc1)C1CC1 [Example 12, (E)-(4-bromo-phenyl)-[4-[4-(cyclopropyl-methyl-amino)-but-2-enyloxy]-phenyl]-methanone] | 19 | – | −23 | −54 | −25 | 84 | – | – | – | –
3 | C=CCN(C)C/C=C/CNc1ccc(C(=O)c2ccc(Br)cc2)cc1F [Example 29] | 4.5 | – | – | – | – | 91 | 0.00071 (≈ 1.7 µM) | 0.00071 (≈ 1.7 µM) | 0.021 (≈ 50.3 µM) | < 0.00032
4 | C=CCN(C)CCCCCCOc1ccc(C(=O)c2ccc(Br)cc2)c(N)c1 [Example 36, [2-amino-4-[6-(allyl-methyl-amino)-hexyloxy]-phenyl]-(4-bromo-phenyl)-methanone] | 8.9 | – | – | – | – | 92 | 0.0024 (≈ 5.39 µM) | < 0.00032 | 0.0011 (≈ 2.47 µM) | < 0.00032
5 | C=CCN(C)CCCCCCOc1ccc(C(=O)c2ccc(Br)cc2)nc1 [Example 43b, [5-[6-(allyl-methyl-amino)-hexyloxy]-pyridin-2-yl]-(4-bromo-phenyl)-methanone] | – | – | – | – | – | – | 0.0064 (≈ 14.8 µM) | < 0.00032 | 0.005 (≈ 11.6 µM) | < 0.00032
6 | C=CCN(C)C/C=C(\C)CC/C=C(\C)CCC(=O)CCC=C(C)C [Example 54b, (9E,13E)-15-(allyl-methyl-amino)-2,9,13-trimethyl-pentadeca-2,9,13-trien-6-one] | – | – | – | – | – | 73 | 0.0061 (≈ 18.4 µM) | < 0.00032 | 0.0065 (≈ 19.6 µM) | 0.00069 (≈ 2.08 µM)
